What all share (format): biochemical, Musa acuminata x Musa balbisiana
Experiment [1] deals with T1, 'Prata' banana peel polyphenol oxidase (PPO).
T1 construct: native crude extract of freeze-dried peel (McIlvaine buffer pH 6.5, PVP, Triton X-100); not purified; o-diphenol oxidase activity
Description: spectrophotometric, […] nm, proline-catechol adduct formation, non-linear Michaelis-Menten fit. The following applies: crude extract; McIlvaine buffer pH 6.5, 30 °C; constant 50 mM L-proline as coupling agent; O2 co-substrate; read-out: apparent KM.

The test system is the same in experiment [2]. The experiment in a line: spectrophotometric initial rate, […] nm, non-linear Michaelis-Menten fit. The following applies: crude extract; McIlvaine buffer pH 6.5, 30 °C; O2 co-substrate.
For experiment [3] the test system is unchanged. Described as above. The following applies: crude extract; McIlvaine buffer pH 6.5, 30 °C; O2 co-substrate. The source holds these as a separate data set.

In general, Km refers to the substrate concentration at which the rate is half of its maximum. For `Cc1ccc(O)c(O)c1` [4-methylcatechol], the Km in experiment [1] amounted to 4.01 mM. Turning to `O=C(/C=C/c1ccc(O)c(O)c1)O[C@@H]1C[C@](O)(C(=O)O)C[C@@H](O)[C@H]1O` [Chlorogenic acid], the Km in experiment [2] is 7.54 ± 0.51 mM.

`NCCc1ccc(O)c(O)c1` [Dopamine]: in experiment [3], the Km came out at 0.94 ± 0.07 mM.

Source of the values: article PMC8150690, “Effects of Extraction Conditions on Banana Peel Polyphenol Oxidase Activity and Insights into Inactivation Kinetics Using Thermal and Cold Plasma Treatment” (Foods, 2021).
